Test results: article PMC6827283, “A Na^+ leak channel cloned from Trichoplax adhaerens extends extracellular pH and Ca^2+ sensing for the DEG/ENaC family close to the base of Metazoa” (The Journal of Biological Chemistry, 2019)

Key:
TadNaC6 [1] = target: T1, TadNaC6 (Trichoplax adhaerens, UniProt A0A5J6BVG3); experiment: whole-cell patch clamp, CHO-K1 cells; assay type: cell-based; details: agonist (activation); perfusion from pH 5 to pH 7.5 (figure legend pH 7.4); 10 μM to 3 mM tested; no EC50
T1 construct: gene ASIC6; full-length untagged channel from pTadNaC6-IR-EGFP (pIRES2-EGFP, EGFP expressed separately) in CHO-K1 cells; functional homomer, trimer by homology; cloning primers encode N-terminus MMAKGKIDH and C-terminus ADATNPDM-stop
T1 sequence (A0A5J6BVG3 1-492): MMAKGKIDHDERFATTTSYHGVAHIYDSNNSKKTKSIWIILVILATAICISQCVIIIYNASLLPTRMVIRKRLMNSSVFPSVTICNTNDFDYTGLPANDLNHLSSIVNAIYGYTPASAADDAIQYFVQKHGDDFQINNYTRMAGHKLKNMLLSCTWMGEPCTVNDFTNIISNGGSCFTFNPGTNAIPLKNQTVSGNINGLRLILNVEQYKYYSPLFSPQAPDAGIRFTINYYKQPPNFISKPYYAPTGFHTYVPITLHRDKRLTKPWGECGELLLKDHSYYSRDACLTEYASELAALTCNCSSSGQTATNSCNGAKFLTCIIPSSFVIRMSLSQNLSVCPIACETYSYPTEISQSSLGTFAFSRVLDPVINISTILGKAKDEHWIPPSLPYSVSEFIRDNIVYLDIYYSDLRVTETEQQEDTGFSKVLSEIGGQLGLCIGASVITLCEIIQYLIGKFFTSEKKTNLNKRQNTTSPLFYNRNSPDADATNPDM

TadNaC6 [2] = target: T1, TadNaC6; experiment: whole-cell patch clamp, CHO-K1 cells; assay type: cell-based

| IC50 (TadNaC6 [2]) | SMILES | fold current at 3 mM relative to pH 9 without amiloride (TadNaC6 [1]) |
| --- | --- | --- |
|  | N=C(N)NC(=O)c1nc(Cl)c(N)nc1N [amiloride] | ~ 12 fold |
| 578 ± 69.4 µM | N=C(N)c1ccc(/N=N/Nc2ccc(C(=N)N)cc2)cc1 [diminazene] |  |
